From patent publication US20180370927A1, “MICROBIOCIDAL OXADIAZOLE DERIVATIVES” (SYNGENTA PARTICIPATIONS AG, priority 2015, published 2018) come the findings set out here.

The melting point is the temperature of the solid-liquid transition. In general, inhibition refers to how much of the control response was suppressed.

Data set [1] relates to Glomerella lacenarium (Colletotrichum lacenarium). In words: Glomerella lacenarium (Colletotrichum lacenarium) liquid culture / cucumber / preventative (anthracnose). Format: cell-based. Particulars: read-out: disease control (inhibition of growth, photometric) compared to untreated control. A digest of the protocol:
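Cryostored conidia in potato dextrose broth added to DMSO compound solution in microtiter plates, incubated at 24° C. Growth inhibition read photometrically 3 to 4 days after application, as percent control versus untreated check; compounds tested at 20 ppm.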

The subject of data set [2] is Puccinia recondita f. Sp. Tritici. In words: Puccinia recondita f. sp. tritici / wheat / leaf disc curative (brown rust). It is filed as in vivo. The note with it: foliar, read-out: disease control compared to untreated control leaf disks. A digest of the protocol:
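Wheat cv. Kanzler leaf segments on agar were inoculated with spores, kept dark at 19° C, 75% RH, then sprayed with diluted formulated compound 1 day after inoculation (curative). Incubation continued at 19° C, 75% RH, 12 h light/12 h dark, with percent disease control versus untreated scored 6 to 8 days after application.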

Data set [3] concerns Phakopsora pachyrhizi. Put plainly: Phakopsora pachyrhizi / soybean / leaf disc preventative (Asian soybean rust). It is filed as in vivo. Particulars: foliar, 200 ppm in the applied formulation, soybean leaf disks, assessed 12 to 14 days after application, read-out: disease control compared to untreated control leaf disks. A digest of the protocol:
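Soybean leaf discs on water agar were sprayed with formulated compound diluted in water, then inoculated one day later with spore suspension on the lower leaf surface. Held 24-36 h dark at 20° C., 75% RH, then 12 h light/day; percent disease control versus untreated scored 12 to 14 days after application.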

The test system of data set [4] is Puccinia recondita f. Sp. Tritici. In words: Puccinia recondita f. sp. tritici / wheat / leaf disc preventative (brown rust). The note with it: foliar, read-out: disease control compared to untreated control leaf disks. It is filed as in vivo. The procedure, abridged: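 Wheat cv. Kanzler leaf segments on agar sprayed with formulated compound in water, inoculated with rust spores 1 day later. Incubated at 19° C, 75% rh, 12 h light/12 h dark; percent disease control versus untreated scored 7 to 9 days after application; tested at 200 ppm.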

The mark [5] stands for this setting: 20 ppm in the applied formulation, liquid culture in PDB, 24° C., 3 to 4 days after application.
Where [6] appears, read: 200 ppm in the applied formulation, wheat leaf segments, curative (applied 1 day after inoculation), assessed 6 to 8 days after application.
Where [7] appears, read: 200 ppm in the applied formulation, wheat leaf segments, preventative, assessed 7 to 9 days after application.

The structures appear in SMILES notation. Read-outs that look alike come from different tables or passages of the source.

In turn, `CC(=O)C(=O)NCc1ccc(-c2noc(C(F)(F)F)n2)cc1` [Compound 1.35, 2-oxo-N-[[4-[5-(trifluoromethyl)-1,2,4-oxadiazol-3-yl]phenyl]methyl]propanamide] showed a melting point of 75.8 to 77.5 °C. Further, the inhibition at 20 ppm in data set [1] (setting [5]) is at least 80%. Moreover, the pest or weed control at 200 ppm in data set [2] (setting [6]) was at least 80%. Moreover, the pest or weed control at 200 ppm in data set [3] is at least 80%. Moreover, the pest or weed control at 200 ppm in data set [4] (setting [7]) was at least 80%.

Take `CO/N=C(\C)C(=O)NCc1ccc(-c2noc(C(F)(F)F)n2)cc1` [Compound 2.9, (2E)-2-methoxyimino-N-[[4-[5-(trifluoromethyl)-1,2,4-oxadiazol-3-yl]phenyl]methyl] propanamide]: the melting point lay within 75.7 to 76.2 °C. Besides, the inhibition at 20 ppm in data set [1] (setting [5]) was at least 80%. Also, in data set [2] (setting [6]), the pest or weed control at 200 ppm was at least 80%. For the same compound, the pest or weed control at 200 ppm in data set [3] was at least 80%. In addition, in data set [4] (setting [7]), the pest or weed control at 200 ppm is at least 80%.

In the case of `CO/N=C(\C#N)C(=O)NCc1ccc(-c2noc(C(F)(F)F)n2)cc1` [Compound 2.13, (1E)-N-methoxy-2-oxo-2-[[4-[5-(trifluoromethyl)-1,2,4-oxadiazol-3-yl]phenyl]methylamino] acetimidoyl cyanide], the melting point was 130 to 131 °C. In data set [1], the inhibition at 20 ppm was at least 80%.

The compound `CO/N=C(\C#N)C(=O)N(Cc1ccc(-c2noc(C(F)(F)F)n2)cc1)OC` [Compound 2.14, (1E)-N-methoxy-2-[methoxy-[[4-[5-(trifluoromethyl)-1,2,4-oxadiazol-3-yl]phenyl]methyl]amino]-2-oxo-acetimidoyl cyanide] gave a melting point of 67 to 68 °C. For the same compound, in data set [1], the inhibition at 20 ppm is at least 80%. Moreover, the pest or weed control at 200 ppm in data set [2] was at least 80%. Also, the pest or weed control at 200 ppm in data set [4] was at least 80%.

`CCOCCOC(=O)C(=O)NCc1ccc(-c2noc(C(F)(F)F)n2)cc1` [Compound 3.4, 2-ethoxyethyl 2-oxo-2-[[4-[5-(trifluoromethyl)-1,2,4-oxadiazol-3-yl]phenyl]methylamino]acetate]: the melting point was in the range of 112 to 114 °C. In data set [1] (setting [5]), the inhibition at 20 ppm was at least 80%. In addition, in data set [4] (setting [7]), the pest or weed control at 200 ppm was at least 80%.

Regarding `CC1CCC(OC(=O)C(=O)NCc2ccc(-c3noc(C(F)(F)F)n3)cc2)C1` (stereo not drawn) [Compound 3.5, (3-methylcyclopentyl) 2-oxo-2-[[4-[5-(trifluoromethyl)-1,2,4-oxadiazol-3-yl]phenyl]methylamino]acetate], the melting point lay in the range of 112 to 116 °C. Moreover, the inhibition at 20 ppm in data set [1] (setting [5]) is at least 80%. Also, the pest or weed control at 200 ppm in data set [4] (setting [7]) was at least 80%.

Turning to `O=C(NCc1ccc(-c2noc(C(F)(F)F)n2)cc1)C(=O)OC1CCSC1` (stereo not drawn) [Compound 3.6, tetrahydrothiophen-3-yl 2-oxo-2-[[4-[5-(trifluoromethyl)-1,2,4-oxadiazol-3-yl]phenyl]methylamino]acetate], the melting point lay within 102 to 105 °C. In addition, the inhibition at 20 ppm in data set [1] (setting [5]) is at least 80%. In addition, in data set [4] (setting [7]), the pest or weed control at 200 ppm was at least 80%.

On to `O=C(O)C(=O)NCc1ccc(-c2noc(C(F)(F)F)n2)cc1` [Compound 3.8, 2-oxo-2-[[4-[5-(trifluoromethyl)-1,2,4-oxadiazol-3-yl]phenyl]methylamino]acetic acid], for which the melting point was in the range of 162 to 173 °C. Besides, the pest or weed control at 200 ppm in data set [3] was at least 80%.

For the compound `CCOC(=O)C(=O)NCc1ccc(-c2noc(C(F)(F)F)n2)cc1` [Compound 3.9, ethyl 2-oxo-2-[[4-[5-(trifluoromethyl)-1,2,4-oxadiazol-3-yl]phenyl]methylamino] acetate], the melting point was in the range of 112 to 116 °C. The inhibition at 20 ppm in data set [1] (setting [5]) was at least 80%. For the same compound, the pest or weed control at 200 ppm in data set [3] is at least 80%. For the same compound, in data set [4] (setting [7]), the pest or weed control at 200 ppm was at least 80%.

As for `CN(Cc1ccc(-c2noc(C(F)(F)F)n2)cc1)C(=O)C(N)=O` [Compound 4.30, N′-methyl-N′-[[4-[5-(trifluoromethyl)-1,2,4-oxadiazol-3-yl]phenyl]methyl] oxamide], the melting point was in the range of 120 to 125 °C. The inhibition at 20 ppm in data set [1] (setting [5]) is at least 80%. The pest or weed control at 200 ppm in data set [2] (setting [6]) is at least 80%. For the same compound, in data set [3], the pest or weed control at 200 ppm was at least 80%. Also, the pest or weed control at 200 ppm in data set [4] (setting [7]) was at least 80%.

In turn, `CNC(=O)C(=O)N(Cc1ccc(-c2noc(C(F)(F)F)n2)cc1)OC` [Compound 4.35, N′-methoxy-N-methyl-N′-[[4-[5-(trifluoromethyl)-1,2,4-oxadiazol-3-yl]phenyl]methyl] oxamide] showed a melting point of 87.7 to 88.8 °C. Also, the inhibition at 20 ppm in data set [1] (setting [5]) is at least 80%. The pest or weed control at 200 ppm in data set [2] (setting [6]) was at least 80%. Also, the pest or weed control at 200 ppm in data set [3] is at least 80%. The pest or weed control at 200 ppm in data set [4] (setting [7]) was at least 80%.

For the compound `Cc1cc(-c2noc(C(F)(F)F)n2)ccc1NC(=O)C(=O)N(C)C` [Compound 4.37, N′,N′-dimethyl-N-[2-methyl-4-[5-(trifluoromethyl)-1,2,4-oxadiazol-3-yl]phenyl]oxamide], the melting point lay within 79 to 89 °C. The inhibition at 20 ppm in data set [1] (setting [5]) is at least 80%. The pest or weed control at 200 ppm in data set [2] (setting [6]) was at least 80%. In addition, in data set [3], the pest or weed control at 200 ppm was at least 80%. Further, the pest or weed control at 200 ppm in data set [4] (setting [7]) is at least 80%.

For the compound `CON(Cc1ccc(-c2noc(C(F)(F)F)n2)cc1F)C(=O)C(=O)N(C)C` [Compound 4.95, N′-[[2-fluoro-4-[5-(trifluoromethyl)-1,2,4-oxadiazol-3-yl]phenyl]methyl]-N′-methoxy-N,N-dimethyl-oxamide], in data set [1] (setting [5]), the inhibition at 20 ppm is at least 80%. Besides, the pest or weed control at 200 ppm in data set [2] (setting [6]), in data set [3] and in data set [4] (setting [7]) was at least 80% each time.

Take `CN(C)C(=O)C(=O)NCc1ccc(-c2noc(C(F)(F)F)n2)cc1Cl` [Compound 4.96, N-[[2-chloro-4-[5-(trifluoromethyl)-1,2,4-oxadiazol-3-yl]phenyl]methyl]-N′,N′-dimethyl-oxamide]: in data set [1] (setting [5]), the inhibition at 20 ppm was at least 80%. The pest or weed control at 200 ppm in data set [2] (setting [6]), in data set [3] and in data set [4] (setting [7]) was at least 80% throughout.

In the case of `Cc1cc(-c2noc(C(F)(F)F)n2)ccc1CNC(=O)C(=O)N(C)C` [Compound 4.97, N′,N′-dimethyl-N-[[2-methyl-4-[5-(trifluoromethyl)-1,2,4-oxadiazol-3-yl]phenyl]methyl] oxamide], the inhibition at 20 ppm in data set [1] (setting [5]) was at least 80%. For the same compound, the pest or weed control at 200 ppm in data set [2] (setting [6]), in data set [3] and in data set [4] (setting [7]) was at least 80% each time.

Turning to `CN(C)C(=O)C(=O)NCc1c(F)cc(-c2noc(C(F)(F)F)n2)cc1F` [Compound 4.98, N-[[2,6-difluoro-4-[5-(trifluoromethyl)-1,2,4-oxadiazol-3-yl]phenyl]methyl]-N′,N′-dimethyl-oxamide], the inhibition at 20 ppm in data set [1] (setting [5]) is at least 80%. Moreover, the pest or weed control at 200 ppm in data set [2] (setting [6]), in data set [3] and in data set [4] (setting [7]) was at least 80% in each case.

For `CCN(Cc1ccc(-c2noc(C(F)(F)F)n2)cc1)C(=O)C(=O)NC` [Compound 4.101, N′-ethyl-N-methyl-N′-[[4-[5-(trifluoromethyl)-1,2,4-oxadiazol-3-yl]phenyl]methyl] oxamide], the inhibition at 20 ppm in data set [1] (setting [5]) was at least 80%. The pest or weed control at 200 ppm in data set [2] (setting [6]), in data set [3] and in data set [4] (setting [7]) was at least 80% in each case.

For the compound `CON(C)C(=O)C(=O)N(C)Cc1ccc(-c2noc(C(F)(F)F)n2)cc1` [Compound 4.104, N′-methoxy-N,N′-dimethyl-N-[[4-[5-- (trifluoromethyl)-1,2,4-oxadiazol-3-yl]phenyl]methyl] oxamide], in data set [1] (setting [5]), the inhibition at 20 ppm is at least 80%. The pest or weed control at 200 ppm in data set [2] (setting [6]), in data set [3] and in data set [4] (setting [7]) was at least 80% throughout.

For the compound `CON(C)C(=O)C(=O)N(Cc1ccc(-c2noc(C(F)(F)F)n2)cc1)C1CC1` [Compound 4.105, N′-cyclopropyl-N-methoxy-N-methyl-N′-[[4-[5-(trifluoromethyl)-1,2,4-oxadiazol-3-yl]phenyl]methyl] oxamide], the inhibition at 20 ppm in data set [1] (setting [5]) is at least 80%. In addition, the pest or weed control at 200 ppm in data set [2] (setting [6]), in data set [3] and in data set [4] (setting [7]) was at least 80% throughout.

Turning to `CCN(Cc1ccc(-c2noc(C(F)(F)F)n2)cc1)C(=O)C(=O)N(C)OC` [Compound 4.106, N′-ethyl-N-methoxy-N-methyl-N′-[[4-[5-(trifluoromethyl)-1,2,4-oxadiazol-3-yl]phenyl]methyl] oxamide], the inhibition at 20 ppm in data set [1] (setting [5]) is at least 80%. Also, the pest or weed control at 200 ppm in data set [2] (setting [6]), in data set [3] and in data set [4] (setting [7]) was at least 80% each time.
